Experimental data taken from ChEMBL document CHEMBL1126416, “Caracasanamide, a novel hypotensive agent from Verbesina caracasana” (Bioorg Med Chem Lett, 1992).

Key:
Assay type in all cases: functional, organism-based
[1] = system: Rattus norvegicus; test: Concentration at which decrease blood pressure of anesthetized rat when administered intravenously; 50-6400 ug/kg body weight
[2] = system: Rattus norvegicus; test: Concentration at which increase cardiac inotropism of anesthetized rat when administered intravenously was observed; 50-6400 ug/kg body weight
[3] = system: Rattus norvegicus; test: Concentration at which increase in respiratory frequency of anesthetized rat when administered intravenously was observed; 50-6400 ug/kg body weight
[4] = system: Rattus norvegicus; test: Concentration at which increase in tidal volume of anesthetized rat when administered intravenously was observed; 50-6400 ug/kg body weight
[5] = system: Rattus norvegicus; test: Concentration at which no change in heart rate of anesthetized rat when administered intravenously was observed; 50-6400 ug/kg body weight

Measured: Concentration

COc1ccc(/C=C\C(=O)NCCCC/N=C(\N)NCC=C(C)C)cc1OC
50 µg/kg: all assays above
